Converted amounts (≈) assume the structure as drawn. The source made the active and inactive calls. The rule behind the calls is not given here.
How the values were obtained:
Escherichia coli = experiment: Antibacterial activity against Escherichia coli at 100 ug/mL; type: functional, organism-based
Aspergillus flavus = experiment: Antifungal activity against Aspergillus flavus at 100 ug/mL; type: functional, organism-based
Streptomyces albus = experiment: Antibacterial activity against Streptomyces albus at 100 ug/mL; type: functional, organism-based
Candida albicans = experiment: Antifungal activity against Candida albicans at 100 ug/mL; type: functional, organism-based
[1] = target: T1, Polyunsaturated fatty acid lipoxygenase ALOX15 (Oryctolagus cuniculus, UniProt P12530); experiment: Inhibition of rabbit reticulocytes arachidonate 15-lipoxygenase
T1 sequence (P12530 whole entry): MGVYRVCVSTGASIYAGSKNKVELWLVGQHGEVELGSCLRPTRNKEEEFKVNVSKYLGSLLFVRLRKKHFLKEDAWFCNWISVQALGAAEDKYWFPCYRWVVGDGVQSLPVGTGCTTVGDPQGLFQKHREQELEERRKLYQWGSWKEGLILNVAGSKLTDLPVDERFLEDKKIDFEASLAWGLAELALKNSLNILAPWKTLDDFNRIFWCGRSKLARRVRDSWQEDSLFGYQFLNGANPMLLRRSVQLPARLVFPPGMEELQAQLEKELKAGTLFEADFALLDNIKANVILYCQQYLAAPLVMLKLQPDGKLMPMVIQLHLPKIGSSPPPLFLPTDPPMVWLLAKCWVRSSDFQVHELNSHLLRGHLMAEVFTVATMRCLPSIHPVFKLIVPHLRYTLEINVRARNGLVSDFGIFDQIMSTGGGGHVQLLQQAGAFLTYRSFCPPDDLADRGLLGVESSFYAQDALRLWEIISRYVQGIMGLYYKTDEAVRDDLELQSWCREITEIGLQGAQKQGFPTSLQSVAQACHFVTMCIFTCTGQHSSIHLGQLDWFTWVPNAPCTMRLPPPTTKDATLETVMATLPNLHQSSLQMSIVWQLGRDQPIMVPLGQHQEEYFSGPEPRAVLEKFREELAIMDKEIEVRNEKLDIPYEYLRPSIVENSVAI

[2] = Inhibition of soybean arachidonate 15-lipoxygenase; parameters: species or system Glycine max
[3] = Antioxidant activity assessed as inhibition of lipid peroxidation after 30 mins; type: functional
[4] = test system: Radical scavenging activity; experiment: Antioxidant activity assessed as DPPH radical scavenging activity at 667 uM after 15 mins; type: functional
[5] = test system: Mycobacterium tuberculosis; experiment: Antimycobacterial activity against Mycobacterium tuberculosis H37Rv ATCC 27294 at 6.25 ug/mL by microplate alamar blue assay; type: functional
Mus musculus [6] = experiment: Antiinflammatory activity in […] mouse assessed as inhibition of carrageenan-induced edema after 2 hrs relative to control; type: functional
[7] = test system: Mycobacterium tuberculosis; experiment: Antimycobacterial activity against Mycobacterium tuberculosis H37Rv ATCC 27294 by microplate alamar blue assay; type: functional
Mus musculus [8] = experiment: Antiinflammatory activity in […] mouse assessed as inhibition of carrageenan-induced edema after 3 hrs relative to control; type: functional
Substance-P receptor = Substance-P receptor (Homo sapiens, UniProt P25103); experiment: Antagonist activity at human NK1 receptor expressed in CHO cells assessed as inhibition of SP-induced intracellular Ca2+ increase by Fura-2 assay; type: functional, cell-based; conditions: read-out: pA2 (converted)
Chain of Substance-P receptor (P25103 whole entry, the tested form may be a part): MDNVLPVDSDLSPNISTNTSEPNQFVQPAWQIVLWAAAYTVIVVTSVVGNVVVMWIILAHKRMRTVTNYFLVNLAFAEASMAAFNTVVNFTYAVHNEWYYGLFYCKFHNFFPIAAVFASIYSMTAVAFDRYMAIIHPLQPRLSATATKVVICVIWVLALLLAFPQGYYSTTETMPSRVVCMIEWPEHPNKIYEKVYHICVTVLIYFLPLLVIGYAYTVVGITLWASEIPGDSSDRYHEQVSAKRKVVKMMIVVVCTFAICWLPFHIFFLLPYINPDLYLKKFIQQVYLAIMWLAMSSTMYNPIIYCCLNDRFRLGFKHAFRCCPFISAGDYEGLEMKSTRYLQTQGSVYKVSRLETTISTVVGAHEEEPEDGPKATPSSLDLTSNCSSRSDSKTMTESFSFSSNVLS

[9] = test system: Mycobacterium tuberculosis; experiment: Antimycobacterial activity against Mycobacterium tuberculosis H37Rv by agar diffusion method; type: functional

Structure (SMILES) | IC50 [2] [µM] | IC50 [3] [µM] | Activity [4] [%] | inhibition at 6.25 µg/mL [5] [%] | also measured
CC1=CC=CC2[C@@H]3C(=O)N(c4ccccc4)C(=O)[C@@H]3C(C(=O)c3cccs3)N12 (stereo partly drawn) | – | – | – | – | Activity (Escherichia coli): Active; Activity (Aspergillus flavus): Active; Activity (Streptomyces albus): Active; Activity (Candida albicans): Active
Cc1ccc(S(=O)(=O)Oc2c(-c3ccccc3)c(-c3ccccc3)n3ccc(C#N)cc23)cc1 | 17 | 3.64 | – | – | IC50 [1]: 25 µM
CCOC(=O)C1(C#N)C(c2ccc(Cl)cc2)=C(C(=O)c2cccs2)N2C(C)=CC=CC21 (stereo not drawn) | – | – | – | – | Activity (Escherichia coli): Active; Activity (Aspergillus flavus): inactive; Activity (Streptomyces albus): Active; Activity (Candida albicans): Active
N#Cc1ccn2c(-c3ccccc3)c(-c3ccccc3)cc2c1 | 30 | > 100 | -0.2 | 9 | IC50 [1]: 51 µM
N#Cc1ccn2c(-c3ccccc3)c(-c3ccccc3)c(OS(=O)(=O)C(F)(F)F)c2c1 | 46 | 0.6 | 79.5 | – | IC50 [1]: 59 µM
C=Cc1c(-c2ccccc2)c(-c2ccccc2)n2ccc(C#N)cc12 | – | > 100 | – | – | –
COC(=O)c1cc(C(=O)c2cc3ccccc3o2)n2ccccc12 | – | – | – | – | inhibition (INH) (Mus musculus [6]): 36%
COc1ccccc1-c1c(-c2ccccc2)c(-c2ccccc2)n2ccc(C#N)cc12 | 20 | > 100 | -0.2 | – | –
N#Cc1ccn2c(-c3ccccc3)c(-c3ccccc3)c(C(O)C3CCCCC3)c2c1 (stereo not drawn) | 23 | – | – | – | MIC [7]: > 6.25 µg/mL
N#Cc1ccn2c(-c3ccccc3)c(-c3ccccc3)c(-c3ccsc3)c2c1 | 19 | > 100 | 0 | – | –
N#Cc1ccn2c(-c3ccccc3)c(-c3ccccc3)c(C(=O)c3ccccc3)c2c1 | 23 | – | – | 33 | IC50 [1]: 43 µM
CC(O)(c1ccccc1)c1c(-c2ccccc2)c(-c2ccccc2)n2ccc(C#N)cc12 (stereo not drawn) | 17 | – | – | 71 | –
CC(C)Cc1ccc(C(C)C(=O)O)cc1 (stereo not drawn) [IBUPROFEN] | – | – | – | – | inhibition (INH) (Mus musculus [8]): 62%; inhibition (INH) (Mus musculus [6]): 59%
CC(O)c1c(-c2ccccc2)c(-c2ccccc2)n2ccc(C#N)cc12 (stereo not drawn) | 26 | – | – | 78 | –
N#Cc1ccn2c(-c3ccccc3)c(-c3ccccc3)c(C=O)c2c1 | 29 | – | – | 35 | IC50 [1]: 61 µM
N#Cc1cc(C(=O)c2cc3ccccc3o2)n2ccccc12 | – | – | – | – | inhibition (INH) (Mus musculus [8]): 24%
c1csc(-c2cc3ccccn3c2)c1 | – | – | – | – | Activity (Escherichia coli): Active; Activity (Aspergillus flavus): inactive; Activity (Streptomyces albus): Active; Activity (Candida albicans): Active
COc1c(-c2ccccc2)c(-c2ccccc2)n2ccc(C#N)cc12 | 33 | 22 | -0.6 | – | IC50 [1]: 77 µM
CC(=O)Oc1c(-c2ccccc2)c(-c2ccccc2)n2ccc(C#N)cc12 | 31 | 0.15 | -0.5 | – | IC50 [1]: 75 µM
N#Cc1ccn2c(-c3ccccc3)c(-c3ccccc3)c(Cc3ccccc3)c2c1 | 27 | – | – | 43 | IC50 [1]: 46 µM
CC(=O)c1c(-c2ccccc2)c(-c2ccccc2)n2ccc(C#N)cc12 | 23 | > 100 | – | 21 | IC50 [1]: 44 µM
COc1ccc(COc2c(-c3ccccc3)c(-c3ccccc3)n3ccc(C#N)cc23)cc1 | 32 | – | 33.3 | – | –
N#Cc1ccn2c(-c3ccccc3)c(-c3ccccc3)c(OCc3ccc(F)cc3)c2c1 | 35 | – | 1.8 | – | –

Structure (SMILES) | IC50 [2] [µM] | IC50 [3] [µM] | Activity [4] [%] | inhibition at 6.25 µg/mL [5] [%] | also measured
N#Cc1ccn2c(-c3ccccc3)c(-c3ccccc3)c(Br)c2c1 | – | > 100 | – | 69 | –
Cc1c(-c2ccccc2)c(-c2ccccc2)n2ccc(C#N)cc12 | 27 | – | -0.9 | 41 | –
N#Cc1ccn2c(-c3ccccc3)c(-c3ccccc3)c(OCc3ccc(Cl)cc3)c2c1 | 31 | – | 1.3 | – | –
COc1cccc(-c2c(-c3ccccc3)c(-c3ccccc3)n3ccc(C#N)cc23)c1 | 20 | > 100 | -0.3 | – | –
COc1ccc(C(O)c2c(-c3ccccc3)c(-c3ccccc3)n3ccc(C#N)cc23)cc1 (stereo not drawn) | 17 | – | – | 87 | –
COc1ccc(-c2c(-c3ccccc3)c(-c3ccccc3)n3ccc(C#N)cc23)cc1 | 20 | > 100 | -0.9 | – | IC50 [1]: 37 µM
Cc1ccc(C(O)c2c(-c3ccccc3)c(-c3ccccc3)n3ccc(C#N)cc23)cc1 (stereo not drawn) | 22 | – | – | 90 | MIC [7]: 6.25 µg/mL (≈ 15.1 µM)
COC(=O)C1=C2CCC(C(=O)N[C@@H](CCc3c[nH]c4ccccc34)C(=O)NCc3cc(C(F)(F)F)cc(C(F)(F)F)c3)N2C(=O)C(NC(C)=O)C1 (stereo partly drawn) | – | – | – | – | Kb (Substance-P receptor): 100 nM
COc1ccc(C(=O)Oc2c(-c3ccccc3)c(-c3ccccc3)n3ccc(C#N)cc23)cc1 | 28 | – | 5.4 | – | –
N#Cc1ccn2c(-c3ccccc3)c(-c3ccccc3)c(C(O)c3ccc(Cl)cc3)c2c1 (stereo not drawn) | 23 | – | – | 95 | MIC [7]: 6.25 µg/mL (≈ 14.4 µM)
COc1ccccc1C(=O)Oc1c(-c2ccccc2)c(-c2ccccc2)n2ccc(C#N)cc12 | 30 | – | 4.7 | – | –
Cc1ccc(COc2c(-c3ccccc3)c(-c3ccccc3)n3ccc(C#N)cc23)cc1 | 37 | – | -0.8 | – | –
N#Cc1ccn2c(-c3ccccc3)c(-c3ccccc3)c(-c3ccco3)c2c1 | 24 | > 100 | -0.6 | – | –
COC(c1ccccc1)c1c(-c2ccccc2)c(-c2ccccc2)n2ccc(C#N)cc12 (stereo not drawn) | 21 | – | – | 74 | –
N#Cc1ccn2c(-c3ccccc3)c(-c3ccccc3)c(-c3ccccc3)c2c1 | 28 | > 100 | – | 8 | –
N#Cc1c(-c2ccc(F)cc2)c([N+](=O)[O-])c2c3ccccc3ccn12 | – | – | – | – | MIC [9]: 3.9 µM (≈ 1.29 µg/mL)
N#Cc1ccn2c(-c3ccccc3)c(-c3ccccc3)c(CO)c2c1 | 26 | – | – | 67 | IC50 [1]: 34 µM
COc1cccc(C(=O)Oc2c(-c3ccccc3)c(-c3ccccc3)n3ccc(C#N)cc23)c1 | 28 | – | 1.2 | – | –
N#Cc1ccn2c(-c3ccccc3)c(-c3ccccc3)c(-c3cccs3)c2c1 | 20 | > 100 | -1.8 | – | –
O=c1c(O)c(-c2ccc(O)c(O)c2)oc2cc(O)cc(O)c12 [QUERCETIN] | 51 | – | – | – | IC50 [1]: 37 µM
N#Cc1ccn2c(-c3ccccc3)c(-c3ccccc3)c(OCOCc3ccccc3)c2c1 | 27 | – | 0.1 | – | IC50 [1]: 39 µM
CCOC(=O)c1c(-c2ccc(Cl)cc2)cc2c3ccccc3ccn12 | – | – | – | – | MIC [9]: 2.3 µM (≈ 0.805 µg/mL)
